Biological target: T1, recombinant human aldose reductase (Homo sapiens, UniProt P15121)
T1 construct: made in house; host or cells: Baculovirus-insect cell system
Assay: Aldose reductase inhibition (decrease with time in absorbance at 340 nm, NADPH / DL-glyceraldehyde)
Format: biochemical
Settings: 0.1M phosphoric acid buffer, 25°C, absorbance 340 nm, read-out: IC₅₀
Source text: A large amount of recombinant human aldose reductase was expressed in a Baculovirus-insect cell system by Nishimura et al method (Nishimura et al, J. Biol. Chem. volume 265, pages 9,788-9,792, 1990 and Biochem. Biophys. Acta. volume 1,078, pages 171-178, 1991; and Tanimoto and Nishimura, Experimental Medicine, volume 9, No. 5 (extra issue), pages 165-170, 1991). Purification was made by affinity chromatography, gel filtration and chromatofocusing until electrophoretically uniform aldose reductase was obtained.
To 0.1M phosphoric acid buffer solution (0.8 ml) was added 3mM NADPH (0.05 ml), DL-glyceral-dehyde (0.1 ml) and distilled water (0.04 ml). The mixture was left to stand at 25°C for three minutes. To the mixture was added aldose reductase solution (0.01 ml) in order to start a reaction. Measurement was made of reduction with time in absorbance of 340 nm at 25°C. The amount of enzyme that consumes 1µ mole of […] per minute was taken as a unit.
Enzyme activities were measured after aqueous inhibiting substance solution (0.04 ml each) having various concentrations in place of the distilled water (0.04 ml) under the same conditions as those for aldose reductase. IC₅₀ values that inhibit enzyme activity by 50% were calculated on the basis of enzyme activities measured in the presence or absence of the inhibitors. The inhibitors used include: 8,10-dicarboxy-2-methoxycarbonyl-1H-oxazo[5,4-h] pyrrolo[2,3-f]quinoline (Compound 1, abbreviated OPQ-8,10-DCA-2-ME); 8-carboxy-2,10-dimethoxycarbonyl-1H-oxazo[5,4-h] pyrrolo-[2,3-f]quinoline (Compound 2, abbreviated OPQ-8-CA-2,10-DME); 10-(N-n-amyl)carbamoyl-2,8-dicarboxy-1H-oxazo [5,4-h]pyrrolo[2,3-f]quinoline (Compound 3, abbreviated OPQ-2,8-DCA-10-AA); 10-(N-n-amyl)carbamoyl-8-carboxy-2-methoxy-carbonyl-1H-oxazo[5,4-h]pyrrolo[2,3-f]quinoline (Compound 4, abbreviated OPQ-8-CA-2-ME-10-AA); 2,10-dicarboxy-8-methoxycarbonyl-1H-oxazo[5,4-h] pyrrolo-[2,3-f]quinoline (abbreviated OPQ-2,10-DCA-8-ME); 10-carboxy-2,8-dimethoxycarbonyl-1H-oxazo[5,4-h] pyrrolo-[2,3-f]quinoline (abbreviated OPQ-10-CA-2,8-DME); 2,8,10-trimethoxycarbonyl-1H-oxazo[5,4-h]pyrrolo [2,3-f]-quinoline (abbreviated OPQ-2,8,10-TME); 10-carboxy-2-methoxycarbonyl-1H-oxazo[5,4-h] pyrrolo-[2,3-f]quinoline (abbreviated OPQ-10-CA-2-ME); 8,10-diethoxycarbonyl-2-methoxycarbonyl-1H-oxazo [5,4-hj]yrrolo[2,3-f]quinoline (abbreviated OPQ-2-ME-8,10-DME); 10-(N-n-amyl) carbamoyl-2,8-dimethoxycarbonyl-1H-oxazo[5,4-h]pyrrolo[2,3-f]quinoline (abbreviated OPQ-2,8-DME-10-AA); and 2,8,10-tri[(N-n-amyl)carbamoyl]-1H-oxazo[5,4-h] pyrrolo-[2,3-f]quinoline (abbreviated OPQ-2,8,10-TAA).

| Structure (SMILES) | IC50 [µM] |
| --- | --- |
| COC(=O)c1cc2c([nH]1)c1c(C(=O)O)cc(C(=O)O)nc1c1ncoc21 [Compound 1, 8,10-dicarboxy-2-methoxycarbonyl-1H-oxazo[5,4-h] pyrrolo[2,3-f]quinoline] | 0.26 |
| COC(=O)c1cc2c([nH]1)c1c(C(=O)OC)cc(C(=O)O)nc1c1ncoc21 [Compound 2, 8-carboxy-2,10-dimethoxycarbonyl-1H-oxazo[5,4-h] pyrrolo-[2,3-f]quinoline] | 0.58 |
| CCCCCNC(=O)c1cc(C(=O)O)nc2c3ncoc3c3cc(C(=O)O)[nH]c3c12 [Compound 3, 10-(N-n-amyl)carbamoyl-2,8-dicarboxy-1H-oxazo [5,4-h]pyrrolo[2,3-f]quinoline] | 0.26 |
| CCCCCNC(=O)c1cc(C(=O)O)nc2c3ncoc3c3cc(C(=O)OC)[nH]c3c12 [Compound 4, 10-(N-n-amyl)carbamoyl-8-carboxy-2-methoxy-carbonyl-1H-oxazo[5,4-h]pyrrolo[2,3-f]quinoline] | 0.19 |
| CCCCCNC(=O)c1cc(C(=O)NCCCCC)c2c(n1)c1ncoc1c1cc(C(=O)NCCCCC)[nH]c12 [OPQ-2,8,10-TAA, 2,8,10-tri[(N-n-amyl)carbamoyl]-1H-oxazo[5,4-h] pyrrolo-[2,3-f]quinoline] | 77 |
| COC(=O)c1cc(C(=O)OC)c2c(n1)c1ncoc1c1cc(C(=O)OC)[nH]c12 [OPQ-2,8,10-TME, 2,8,10-trimethoxycarbonyl-1H-oxazo[5,4-h]pyrrolo [2,3-f]-quinoline] | > 100 |
| CCCCCNC(=O)c1cc(C(=O)OC)nc2c3ncoc3c3cc(C(=O)OC)[nH]c3c12 [OPQ-2,8-DME-10-AA, 10-(N-n-amyl) carbamoyl-2,8-dimethoxycarbonyl-1H-oxazo[5,4-h]pyrrolo[2,3-f]quinoline] | 93 |
| COC(=O)c1cc(C(=O)O)c2c(n1)c1ncoc1c1cc(C(=O)O)[nH]c12 [OPQ-2,10-DCA-8-ME, 2,10-dicarboxy-8-methoxycarbonyl-1H-oxazo[5,4-h] pyrrolo-[2,3-f]quinoline] | 2.9 |
| CCOC(=O)c1cc(C(=O)OCC)c2c(n1)c1ncoc1c1cc(C(=O)OC)[nH]c12 [OPQ-2ME-8,10-DEE, 8,10-diethoxycarbonyl-2-methoxycarbonyl-1H-oxazo [5,4-hj]yrrolo[2,3-f]quinoline] | > 100 |
| COC(=O)c1cc(C(=O)O)c2c(n1)c1ncoc1c1cc(C(=O)OC)[nH]c12 [OPQ-10-CA-2,8-DME, 10-carboxy-2,8-dimethoxycarbonyl-1H-oxazo[5,4-h] pyrrolo-[2,3-f]quinoline] | 1.3 |
| COC(=O)c1cc2c([nH]1)c1c(C(=O)O)ccnc1c1ncoc21 [OPQ-10-CA-2ME, 10-carboxy-2-methoxycarbonyl-1H-oxazo[5,4-h] pyrrolo-[2,3-f]quinoline] | 1.7 |
